Here are results for 13 compounds from patent publication US10934297B2, “5-heteroaryl substituted indazole-3-carboxamides and preparation and use thereof” (Samumed, LLC, priority 2018, dated 2021).

The target in one assay is GSK3β kinase (Homo sapiens (Human), UniProt P49841). Put plainly: GSK3β kinase assay (Ser/Thr 09 peptide Z-lyte FRET). The format is biochemical. As to conditions: read-out: EC50 (method: IC50). In a few lines:
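Non-radioactive Z-lyte FRET read-out, kinase activity expressed as coumarin/fluorescein emission ratio. Compounds incubated with the reaction mixture one hour at room temperature in duplicate, then development buffer added for another hour. IC50 from non-linear regression of dose-response curves.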

For a further assay, the system named is IL-6. Put plainly: IL-6 inhibition in LPS-stimulated human peripheral blood mononuclear cells (HTRF). The format is cell-based. Conditions: Homo sapiens, PBMC; for EC50: huPBMCs, LPS 50 ng/mL, 22 hours, IL-6 HTRF; for inhibition at 10 µM: read-out: percent inhibition at 10 μM. In a few lines:
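HTRF 665/620 nm ratio, read after 3 h antibody incubation at room temperature, quantified IL-6 released by fresh human PBMCs (1×10e6 cells/mL, 1% FBS-RPMI). The cells got compound, then 50 ng/mL LPS at 2 h, followed by a further 22 h at 37° C. EC50 came from DMSO-normalized readings run in duplicate.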
A general note: TR-FRET usually uses a lanthanide donor and a delayed reading to cut background.

Assay [1] relates to primary human fibroblasts derived from IPF patients (LL29 cells). In words: Inhibition of the fibrotic process: αSMA staining in TGF-β1 treated LL29 fibroblasts. The format is cell-based. Conditions: Homo sapiens, Fibroblast, 96 h; LL29 cells, TGF-β1 20 ng/mL, 4 days, % αSMA positive cells. In a few lines:
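LL29 fibroblasts from IPF patients, in F12 medium with 1% FBS, treated with TGF-β1 plus compound; TGF-β1 with DMSO as positive control, DMSO alone as negative control. After 4 days' incubation, SYTOX green nucleic acid stain added at 1 μM final, 30 min at room temperature.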

Another assay has as its target DYRK1A kinase (Homo sapiens (Human), UniProt Q13627). In words: DYRK1A kinase assay (Ser/Thr 18 peptide Z-lyte FRET). The format is biochemical. Conditions: read-out: EC50 (method: IC50). A digest of the protocol: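 Kinase reactions with compound ran 1 h at room temperature in duplicate, and development reagent was then added for another hour.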
The subject of assay [2] is Wnt activity (Sp5-Luc reporter in SW480 cells). In words: Screening assay for Wnt activity: Sp5-Luc reporter gene assay in SW480 colon carcinoma cells. The format is cell-based, human. As to conditions: Homo sapiens, 36 to 48 hours. In a few lines:
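EC50 values come from a variable-slope four-parameter fit of luminescence normalized to DMSO-only wells. The read-out follows 36–48 h incubation at 37 °C, 5% CO2, in DMEM containing 1% fetal bovine serum. Cells are hygromycin-selected SW480 stably expressing firefly luciferase under a Wnt-responsive Sp5 promoter (eight TCF/LEF sites).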
Background: A reporter such as luciferase makes a cellular process visible.

For assay [3], the system named is SW480 colon carcinoma cells. Put plainly: Cell viability assay (CellTiter-Glo) in SW480 colon carcinoma cells. The format is cell-based, human. Conditions: Homo sapiens, 96 h, four days. In a few lines: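 Viability was taken from CellTiter-Glo ATP luminescence, read about 12 min after reagent addition, relative to DMSO controls. The cells were Sp5-Luc reporter SW480 colon carcinoma cells, 2,000/well in 1% FBS DMEM, exposed to compound for four days at 37 °C.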
(In general: Cellular ATP, detected with luciferase, serves as a proxy for viable cell number.)

In assay [4] the test system is primary human mesenchymal stem cells (hMSCs). Put plainly: Tenocyte differentiation assay (SCXA-positive cells) in hMSCs. The format is cell-based. As to conditions: for EC50: Homo sapiens, Mesenchymal stem cells, 96 h, hMSCs, 4 days, SCXA positive cells; for percent in parentheses under EC50 >100: given for EC50 >100 μM, meaning not defined in this example. In a few lines: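 Passage 3–6 hMSCs were compound-treated, fixed in 4% formaldehyde and stained overnight at 4 °C with anti-SCXA antibody; SCXA-positive cells were counted by imaging. Counts were normalized to the mean of 12 DMSO wells as fold change, averaged over 3 replicate wells per concentration, and curve-fitted for EC50.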

SMILES strings stand for the structures. Some results are limits rather than exact numbers.

Sequence of GSK3β kinase (P49841 whole entry): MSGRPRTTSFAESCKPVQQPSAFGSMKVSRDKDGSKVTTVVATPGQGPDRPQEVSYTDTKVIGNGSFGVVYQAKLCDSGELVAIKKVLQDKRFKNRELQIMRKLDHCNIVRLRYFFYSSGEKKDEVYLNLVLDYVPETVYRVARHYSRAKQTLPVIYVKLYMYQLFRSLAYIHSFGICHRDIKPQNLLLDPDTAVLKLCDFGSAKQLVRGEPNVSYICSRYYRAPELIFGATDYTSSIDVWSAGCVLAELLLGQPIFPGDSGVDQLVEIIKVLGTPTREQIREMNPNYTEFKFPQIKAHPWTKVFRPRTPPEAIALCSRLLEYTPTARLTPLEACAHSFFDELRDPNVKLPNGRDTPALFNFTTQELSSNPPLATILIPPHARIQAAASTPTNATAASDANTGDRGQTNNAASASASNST

Consider `CC(C)CN1CC[C@H](NC(=O)c2n[nH]c3ccc(-c4cn[nH]c4)cc23)[C@@H](F)C1` [Compound 145, N-((3 S,4S)-3-Fluoro-1-isobutylpiperidin-4-yl)-5-(1H-pyrazol-4-yl)-1H-indazole-3-carboxamide], for which the values for the IC50 at GSK3β kinase and on DYRK1A kinase were 41 nM and 37 nM, respectively. In addition, the half-maximal effective concentration (EC50) (in general, the concentration that produces a half-maximal response) in the assay with IL-6 turned out to be 1140 nM; in assay [1] it was 100 nM; in assay [2] it was 345 nM; in assay [3], 372 nM; in assay [4] it was 863 nM.
Consider `CN1CCC(CNC(=O)c2n[nH]c3ccc(-c4cnn(C)c4)cc23)CC1` [Compound 147, 5-(1-Methyl-1H-pyrazol-4-yl)-N-((1-methylpiperidin-4-yl)methyl)-1H-indazole-3-carboxamide], for which the IC50 (as a rule, the midpoint of a concentration-inhibition curve) at GSK3β kinase came out at 15 nM; at DYRK1A kinase it was 26 nM. Also, the 50% effective concentration (EC50) in the assay on IL-6 turned out to be 1070 nM; in assay [1] it was 723 nM; in assay [2] it was 3870 nM; in assay [3], 6700 nM; in assay [4] it was 2640 nM.
For the compound `Cc1ncc(-c2ccc3[nH]nc(C(=O)NC4CCN(c5ccc(F)cc5)CC4)c3c2)n1C` [Compound 148, 5-(1,2-Dimethyl-1H-imidazol-5-yl)-N-(1-(4-fluorophenyl)piperidin-4-yl)-1H-indazole-3-carboxamide], the IC50 on GSK3β kinase was 57 nM; on DYRK1A kinase, 49 nM. For the same compound, the EC50 with IL-6 is greater than 10000 nM; in assay [1], 4620 nM; in assay [2] it was 4490 nM; in assay [3] it was 8020 nM; in assay [4], 3090 nM. For the same compound, the inhibition (as a rule, the relative decrease from the control value, in per cent) at 10 µM in the assay with IL-6 was found to be 24.2%.
In the case of `CN1CCN(c2cccc(NC(=O)c3n[nH]c4cc(F)c(-c5cnn(C)c5)cc34)c2)CC1` [Compound 149, 6-Fluoro-5-(1-methyl-1H-pyrazol-4-yl)-N-(3-(4-methylpiperazin-1-yl)phenyl)-1H-indazole-3-carboxamide], the IC50 worked out at 49 nM at GSK3β kinase and 1 nM on DYRK1A kinase. Moreover, the EC50 in the assay on IL-6 is greater than 10000 nM; in assay [1], greater than 10000 nM; in assay [2], 217 nM; in assay [3] it was 331 nM; in assay [4], greater than 100000 nM. The inhibition at 10 µM with IL-6 is 44.7%. For the same compound, in assay [4], the “percent in parentheses under EC50 >100” value was “(36.0%)”.
Turning to `Cn1cc(-c2cc3c(C(=O)Nc4cccc(OC5CCNCC5)c4)n[nH]c3cc2F)cn1` [Compound 150, 6-Fluoro-5-(1-methyl-1H-pyrazol-4-yl)-N-(3-(piperidin-4-yloxy)phenyl)-1H-indazole-3-carboxamide], the IC50 amounted to 52 nM on GSK3β kinase and 4 nM on DYRK1A kinase. Besides, the EC50 with IL-6 is 3570 nM; in assay [1] it was 317 nM; in assay [2], 248 nM; in assay [3] it was 214 nM; in assay [4] it was greater than 100000 nM. In assay [4], the “percent in parentheses under EC50 >100” value is listed as “(17.4%)”.
Take `CN1CCC(Oc2cccc(NC(=O)c3n[nH]c4cc(F)c(-c5cnn(C)c5)cc34)c2)CC1` [Compound 151, 6-Fluoro-5-(1-methyl-1H-pyrazol-4-yl)-N-(3-((1-methylpiperidin-4-yl)oxy)phenyl)-1H-indazole-3-carboxamide]: the IC50 at GSK3β kinase turned out to be 80 nM; at DYRK1A kinase, 5 nM. In addition, the EC50 with IL-6 is 7370 nM; in assay [1], greater than 10000 nM; in assay [2], 113 nM; in assay [3], 258 nM; in assay [4] it was greater than 100000 nM. The “percent in parentheses under EC50 >100” value in assay [4] is “(3.5%)”.
Consider `CN1CCC(Oc2ccc(NC(=O)c3n[nH]c4c(F)cc(-c5cnn(C)c5)cc34)cc2)CC1` [Compound 152, 7-Fluoro-5-(1-methyl-1H-pyrazol-4-yl)-N-(4-((1-methylpiperidin-4-yl)oxy)phenyl)-1H-indazole-3-carboxamide], for which the figures for the IC50 at GSK3β kinase and at DYRK1A kinase were 65 nM and 38 nM, respectively. Also, the EC50 in the assay with IL-6 is 6850 nM; in assay [1], 1120 nM; in assay [2] it was 1460 nM; in assay [3], 783 nM; in assay [4], greater than 100000 nM. Besides, the “percent in parentheses under EC50 >100” value in assay [4] is on record as “(34.7%)”.
Take `CN1CCC(Oc2ccc(NC(=O)c3n[nH]c4cc(F)c(-c5cn(C)nc5CO)cc34)cc2)CC1` [Compound 153, 6-Fluoro-5-(3-(hydroxymethyl)-1-methyl-1H-pyrazol-4-yl)-N-(4-((1-methylpiperidin-4-yl)oxy)phenyl)-1H-indazole-3-carboxamide]: the values for the 50% inhibitory concentration (IC50) on GSK3β kinase and on DYRK1A kinase were greater than 10000 nM and 1210 nM, respectively. Also, the EC50 was greater than 10000 nM in the assay on IL-6; greater than 10000 nM in assay [1]; greater than 10000 nM in assay [2]; greater than 10000 nM in assay [3]; greater than 100000 nM in assay [4]. The inhibition at 10 µM in the assay with IL-6 was 3.7%. The “percent in parentheses under EC50 >100” value in assay [4] is reported as “(20.7%)”.
Regarding `Cn1cc(-c2cc3c(C(=O)Nc4cccc(OCCN5CCCC5)c4)n[nH]c3cc2F)cn1` [Compound 154, 6-Fluoro-5-(1-methyl-1H-pyrazol-4-yl)-N-(3-(2-(pyrrolidin-1-yl)ethoxy)phenyl)-1H-indazole-3-carboxamide], the 50% inhibitory concentration (IC50) at GSK3β kinase was found to be 20 nM; at DYRK1A kinase, 5 nM. Further, the EC50 in the assay with IL-6 is 1860 nM; in assay [1] it was 1130 nM; in assay [2], 306 nM; in assay [3], 414 nM; in assay [4], greater than 100000 nM. In assay [4], the “percent in parentheses under EC50 >100” value is “(21.0%)”.
In the case of `CN1CCC(Oc2cc(NC(=O)c3n[nH]c4cc(F)c(-c5cnn(C)c5)cc34)ccn2)CC1` [Compound 156, 6-Fluoro-5-(1-methyl-1H-pyrazol-4-yl)-N-(2-((1-methylpiperidin-4-yl)oxy)pyridin-4-yl)-1H-indazole-3-carboxamide], the IC50 at GSK3β kinase amounted to 53 nM; at DYRK1A kinase it was 2 nM. The EC50 was found to be 4290 nM with IL-6; 1380 nM in assay [1]; 109 nM in assay [2]; 64 nM in assay [3]; 2640 nM in assay [4].
On to `CN1CCC(Oc2ncc(NC(=O)c3n[nH]c4cc(F)c(-c5cnn(C)c5)cc34)cc2F)CC1` [Compound 157, 6-Fluoro-N-(5-fluoro-6-((1-methylpiperidin-4-yl)oxy)pyridin-3-yl)-5-(1-methyl-1H-pyrazol-4-yl)-1H-indazole-3-carboxamide], for which the IC50 was 20 nM on GSK3β kinase and 1 nM at DYRK1A kinase. The half-maximal effective concentration (EC50) is 1310 nM with IL-6; 2580 nM in assay [1]; 1150 nM in assay [2]; 1300 nM in assay [3]; greater than 100000 nM in assay [4]. Further, the “percent in parentheses under EC50 >100” value in assay [4] is on record as “(35.3%)”.
As for `CC(C)n1cc(-c2cc3c(C(=O)Nc4ccc(OC5CCN(C)CC5)cc4)n[nH]c3cc2F)cn1` [Compound 158, 6-Fluoro-5-(1-isopropyl-1H-pyrazol-4-yl)-N-(4-((1-methylpiperidin-4-yl)oxy)phenyl)-1H-indazole-3-carboxamide], the IC50 at GSK3β kinase amounted to 349 nM; at DYRK1A kinase, 23 nM. Besides, the EC50 in the assay with IL-6 is 5990 nM; in assay [1] it was 1150 nM; in assay [2] it was 1160 nM; in assay [3], 784 nM; in assay [4], greater than 100000 nM. Further, the “percent in parentheses under EC50 >100” value in assay [4] is on record as “(17.4%)”.
Take `CN1CCC(n2cc(-c3ccc4[nH]nc(C(=O)Nc5ccc(F)cc5)c4c3)cn2)CC1` [Compound 159, N-(4-Fluorophenyl)-5-(1-(1-methylpiperidin-4-yl)-1H-pyrazol-4-yl)-1H-indazole-3-carboxamide]: the concentration for half-maximal inhibition (IC50) worked out at 548 nM at GSK3β kinase and 23 nM at DYRK1A kinase. Also, the half-maximal effective concentration (EC50) in the assay on IL-6 is 2820 nM; in assay [1], 1370 nM; in assay [2], 680 nM; in assay [3] it was 810 nM; in assay [4], greater than 100000 nM. Also, in assay [4], the “percent in parentheses under EC50 >100” value is recorded as “(15.5%)”.
